Patent US10280167B2, “Purine derivatives for the treatment of viral infections” (JANSSEN SCIENCES IRELAND UC, priority 2011, dated 2019)

Experiments:
Type in all cases: cell-based
[1] = system: human TLR7 dIRR2 mutant; test: Reporter assay for TLR7 activity, HEK293 transfected with mutant TLR7 (dIRR2 deletion) and NFκB-luc; details: lowest effective concentration; 24 h transfection
Description: (§1) Reporter Assays for Assessment of TLR7 Activity (24 h)
(§2) The ability of compounds to activate human TLR7 was assessed in a cellular reporter assay using HEK293 cells transiently transfected with a TLR7 or TLR8 expression vector and NFκB-luc reporter construct. In one instance the TLR expression construct expresses the respective wild type sequence or a mutant sequence comprising a deletion in the second leucine-rich repeat (dIRR2) of the TLR.
(§3) Briefly, HEK293 cells were grown in culture medium (DMEM supplemented with 10% FCS and 2 mM Glutamine). For transfection of cells in 10 cm dishes, cells were detached with Trypsin-EDTA, transfected with a mix of CMV-TLR7 or TLR8 plasmid (750 ng), NFκB-luc plasmid (375 ng) and a transfection reagent and incubated 24 hours or 48 hours respectively at 37° C. in a humidified 5% CO2 atmosphere. Transfected cells were then detached with Trypsin-EDTA, washed in PBS and resuspended in medium to a density of 1.67×10^5 cells/mL. Thirty microliters of cells were then dispensed into each well in 384-well plates, where 10 μL of compound in 4% DMSO was already present. Following 6 hours incubation at 37° C., 5% CO2, the luciferase activity was determined by adding 15 μl of Steady Lite Plus substrate (Perkin Elmer) to each well and readout performed on a ViewLux ultraHTS microplate imager (Perkin Elmer). Dose response curves were generated from measurements performed in quadruplicates. Lowest effective concentrations (LEC) values, defined as the concentration that induces an effect which is at least two fold above the standard deviation of the assay, were determined for each compound. Compound toxicity was determined in parallel using a similar dilution series of compound with 30 μL per well of cells transfected with the CMV-TLR7 construct alone (1.67×10^5 cells/mL), in 384-well plates. Cell viability was measured after 6 hours incubation at 37° C., 5% CO2 by adding 15 μL of ATP lite (Perkin Elmer) per well and reading on a ViewLux ultraHTS microplate imager (Perkin Elmer). Data was reported as CC50.

[2] = system: Huh-7 luc/neo HCV replicon cells with conditioned media from PBMC; test: Interferon production in human PBMC (PBMC-HUH7_EC50), HCV replicon readout with conditioned media; details: concentration applied to PBMCs giving 50% reduction of replicon luciferase activity
Description: Measurement of Interferon Production in Human PBMC (PBMC-HUH7_EC50)
Activation of human TLR7 results in robust production of interferon by plasmacytoid dendritic cells present in human blood. The potential of compounds to induce interferon was evaluated by looking at the antiviral activity in the HCV replicon system upon incubation with conditioned media from peripheral blood mononuclear cells (PBMC). The HCV replicon assay is based on a bicistronic expression construct, as described by Lohmann et al. (Science (1999) 285: 110-113; Journal of Virology (2003) 77: 3007-15 3019) with modifications described by Krieger et al. (Journal of Virology (2001) 75: 4614-4624). The assay utilized the stably transfected cell line Huh-7 luc/neo harboring an RNA encoding a bicistronic expression construct comprising the wild type NS3-NS5B regions of HCV type 1b translated from an Internal Ribosome Entry Site (IRES) from encephalomyocarditis virus (EMCV), preceded by a reporter gene (Firefly-luciferase) and a selectable marker gene (neoR, neomycine phosphotransferase). The construct is flanked by 5′ and 3′ NTRs (non-translated regions) from HCV type 1b. Continued culture of the replicon cells in the presence of G418 (neoR) is dependent on the replication of the HCV RNA. The stably transfected replicon cells that replicate HCV RNA autonomously and to high levels, encoding inter alia luciferase, were used for profiling of the conditioned cell culture media. Briefly, PBMCs were prepared from buffy coats of at least two donors using a standard Ficoll centrifugation protocol. Isolated PBMCs were resuspended in RPMI medium supplemented with 10% human AB serum and 2×10^5 cells/well were dispensed into 384-well plates containing compounds (70 μL total volume). After overnight incubation, […] was transferred to 384-well plates containing 2.2×10^3 replicon cells/well in 30 μL (plated the day before). Following 24 hours of incubation, replication was measured by assaying luciferase activity using 40 μL/well Steady Lite Plus substrate (Perkin Elmer) and measured with ViewLux ultraHTS microplate imager (Perkin Elmer). The inhibitory activity of each compound on the Huh7-luc/neo cells were reported as EC50 values, defined as the compound concentration applied to the PBMCs resulting in a 50% reduction of luciferase activity which in turn indicates the degree of replication of the replicon RNA on transfer of a defined amount of PBMC culture medium. Recombinant interferon α-2a (Roferon-A) was used as a standard control compound.

[3] = system: HEK-ISRE-luc cells with conditioned media from PBMC; test: Interferon production in human PBMC (PBMC HEK-ISRE-luc LEC); details: lowest effective concentration; for minimal effective concentration: Homo sapiens, PBMC, read-out: PBMC HEK-ISRE-luc (LEC)
Description: Measurement of Interferon Production in Human PBMC (PBMC HEK-ISRE-Luc LEC)
Activation of human TLR7 results in robust production of interferon by plasmacytoid dendritic cells present in human blood. The potential of compounds to induce interferon was evaluated by determination of interferon in the conditioned media from peripheral blood mononuclear cells (PBMC). The presence of interferon in the samples was determined, using an interferon reporter cell line stably expressing an interferon-stimulated responsive elements (ISRE)-luc reporter construct. The ISRE element with sequence GAAACTGAAACT (SEQ ID NO: 1) is highly responsive to the STAT1-STAT2-IRF9 transcription factor, which becomes activated upon binding of IFN-I to the IFN receptor. Briefly, PBMCs were prepared from buffy coats of at least two donors using a standard Ficoll centrifugation protocol. Isolated PBMCs were resuspended in RPMI medium supplemented with 10% human AB serum and 2×10^5 cells/well were dispensed into 384-well plates containing compounds (70 μL total volume). After overnight incubation of the PBMCs with the compounds, 10 μL of supernatant was transferred to 384-well plates containing 5×10^3 HEK-ISRE-luc cells/well in 30 μL (plated the day before). Following 24 hours of incubation, activation of the ISRE elements was measured by assaying luciferase activity using 40 μL/well Steady Lite Plus substrate (Perkin Elmer) and measured with ViewLux ultraHTS microplate imager (Perkin Elmer). The stimulating activity of each compound on the HEK-ISRE-luc cells was reported as LEC. The LEC in turn indicates the degree of ISRE activation on transfer of a defined amount of PBMC culture medium.
Recombinant interferon alfa-2a (Roferon-A) was used as a standard control compound.

[4] = target: T1, human TLR7 (Homo sapiens (Human), UniProt Q9NYK1); test: Reporter assay for TLR7 activity, HEK293 transiently transfected with wild type TLR7 and NFκB-luc; details: lowest effective concentration; 48 h transfection
[5] = system: human TLR7 dIRR2 mutant; test: Reporter assay for TLR7 activity, HEK293 transfected with mutant TLR7 (dIRR2 deletion) and NFκB-luc; details: lowest effective concentration; 48 h transfection
[6] = target: T1, human TLR7; test: Reporter assay for TLR7 activity, HEK293 transiently transfected with wild type TLR7 and NFκB-luc; details: lowest effective concentration; 24 h transfection
Description: as §1, §2, §3

[7] = system: TLR8; test: Reporter assay HEK293 TLR8-NFκB-luc; details: greater than the highest tested concentration
Description: as §2
Briefly, HEK293 cells were grown in culture medium (DMEM supplemented with 10% FCS and 2 mM Glutamine). […] Following 6 hours incubation at 37° C., 5% CO2, the luciferase activity was determined by adding 15 μl of Steady Lite Plus substrate (Perkin Elmer) to each well and readout performed on a ViewLux ultraHTS microplate imager (Perkin Elmer). […] Lowest effective concentrations (LEC) values, defined as the concentration that induces an effect which is at least two fold above the standard deviation of the assay, were determined for each compound. Compound toxicity was determined in parallel using a similar dilution series of compound with 30 μL per well of cells transfected with the CMV-TLR7 construct alone (1.67×10^5 cells/mL), in 384-well plates. Cell viability was measured after 6 hours incubation at 37° C., 5% CO2 by adding 15 μL of ATP lite (Perkin Elmer) per well and reading on a ViewLux ultraHTS microplate imager (Perkin Elmer). […]

[8] = system: HEK293 NFκB-luc; test: Reporter assay HEK293 NFκB-luc; details: greater than the highest tested concentration

T1 sequence (Q9NYK1 27-1049): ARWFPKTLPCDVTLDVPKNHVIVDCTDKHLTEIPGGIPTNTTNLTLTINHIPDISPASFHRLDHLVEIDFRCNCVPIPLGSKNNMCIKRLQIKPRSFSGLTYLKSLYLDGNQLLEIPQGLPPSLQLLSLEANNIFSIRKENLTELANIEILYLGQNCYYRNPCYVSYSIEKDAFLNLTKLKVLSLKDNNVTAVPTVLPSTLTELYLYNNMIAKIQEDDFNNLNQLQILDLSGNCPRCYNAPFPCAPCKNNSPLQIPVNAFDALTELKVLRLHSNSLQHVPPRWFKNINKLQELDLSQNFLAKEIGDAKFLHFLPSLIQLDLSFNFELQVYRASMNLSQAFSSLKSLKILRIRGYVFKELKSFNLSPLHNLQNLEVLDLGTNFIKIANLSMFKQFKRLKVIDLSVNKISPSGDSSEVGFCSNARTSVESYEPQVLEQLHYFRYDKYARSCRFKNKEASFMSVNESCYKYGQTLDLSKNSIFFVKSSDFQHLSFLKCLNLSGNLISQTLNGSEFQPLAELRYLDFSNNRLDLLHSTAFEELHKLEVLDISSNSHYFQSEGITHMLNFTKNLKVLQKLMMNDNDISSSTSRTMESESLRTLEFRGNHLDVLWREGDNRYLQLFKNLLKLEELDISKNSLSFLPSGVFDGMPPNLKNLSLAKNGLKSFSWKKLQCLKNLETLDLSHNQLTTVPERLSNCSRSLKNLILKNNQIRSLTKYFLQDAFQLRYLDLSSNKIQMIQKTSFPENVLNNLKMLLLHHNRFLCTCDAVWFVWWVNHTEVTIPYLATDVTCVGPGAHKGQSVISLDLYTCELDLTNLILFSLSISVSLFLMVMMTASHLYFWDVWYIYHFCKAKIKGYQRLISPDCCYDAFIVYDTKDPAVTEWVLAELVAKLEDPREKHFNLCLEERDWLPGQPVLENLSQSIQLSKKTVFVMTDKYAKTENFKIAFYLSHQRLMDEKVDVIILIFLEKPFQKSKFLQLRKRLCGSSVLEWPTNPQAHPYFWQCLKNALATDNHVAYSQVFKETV

Structure (SMILES) | TLR7-dIRR2_LEC 24 h [1] | EC50 ([2]; Homo sapiens, Huh-7) | minimal effective concentration [3] | TLR7-wt_LEC 48 h [4] | TLR7-dIRR2_LEC 48 h [5] | TLR7-wt_LEC 24 h [6] | LEC on HEK293 TLR8-NFκB-luc [7] | LEC on HEK293 NFκB-luc [8] | EC50 [2] | PBMC HEK-ISRE-luc (LEC) [3]
Nc1nc(-c2nc(C3CC3)c[nH]2)nc2c1[nH]c(=O)n2Cc1ccccc1 [Compound 1] | 0.33 µM | 81 nM | 0.064 µM | 8.25 µM | 0.18 µM | – | – | – | – | –
Nc1nc(-c2nc(-c3ccccc3)c[nH]2)nc2c1[nH]c(=O)n2Cc1ccccc1 [Compound 2] | 1.2 µM | 531 nM | – | – | – | 4.72 µM | – | – | – | –
Nc1nc(-c2nc(C3CCCC3)c[nH]2)nc2c1[nH]c(=O)n2Cc1ccccc1 [Compound 3] | 7.67 µM | 14000 nM | – | – | – | >24.59 µM | – | – | – | –
Nc1nc(-c2ncc[nH]2)nc2c1[nH]c(=O)n2Cc1ccccc1 [Compound 4] | 0.077 µM | 160 nM | 0.12 µM | 1.23 µM | 0.04 µM | – | – | – | – | –
Cc1[nH]c(-c2nc(N)c3[nH]c(=O)n(Cc4ccccc4)c3n2)nc1C1CC1 [Compound 5] | 2.2 µM | 200 nM | 0.13 µM | 21.47 µM | 1.13 µM | – | – | – | – | –
CCc1[nH]c(-c2nc(N)c3[nH]c(=O)n(Cc4ccccc4)c3n2)nc1C1CC1 [Compound 6] | 0.66 µM | 53 nM | 0.04 µM | 6.32 µM | 0.34 µM | – | > 10 µM | > 10 µM | – | –
Nc1nc(-c2nc(C3CC3)c[nH]2)nc2c1[nH]c(=O)n2CC1CCOCC1 [Compound 10] | 18.93 µM | 730 nM | 0.44 µM | >25 µM | 10.13 µM | – | – | – | – | –
Nc1nc(-c2cncnc2)nc2c1[nH]c(=O)n2Cc1ccccc1 [Compound 15] | 10.57 µM | 16900 nM | – | >25 µM | 9.75 µM | >24.59 µM | – | – | – | –
Nc1nc(-c2ccc[nH]2)nc2c1[nH]c(=O)n2Cc1ccccc1 [Compound 18] | 3.23 µM | 2580 nM | – | 20.31 µM | 3.81 µM | >24.59 µM | – | – | – | –
Nc1nc(-c2cn[nH]c2)nc2c1[nH]c(=O)n2Cc1ccccc1 [Compound 19] | 13.31 µM | 12400 nM | – | >25 µM | 16.6 µM | >24.59 µM | – | – | – | –
Nc1nc(-c2ccco2)nc2c1[nH]c(=O)n2Cc1ccccc1 [Compound 20] | 0.5 µM | 680 nM | – | 6.34 µM | 0.5 µM | – | – | – | – | –
Nc1nc(-n2cccn2)nc2c1[nH]c(=O)n2Cc1ccccc1 [Compound 36] | – | 47 nM | 0.033 µM | 0.22 µM | 0.017 µM | – | – | – | – | –
CN(C)CCOc1ccc(Cn2c(=O)[nH]c3c(N)nc(-c4nc(C5CC5)c[nH]4)nc32)cn1 [Compound 54] | – | 50 nM | 0.07 µM | 16.1 µM | 5.65 µM | – | – | – | – | –
COC(=O)COc1ccc(Cn2c(=O)[nH]c3c(N)nc(-c4ncc[nH]4)nc32)cn1 [Compound 57] | – | 1210 nM | 1.38 µM | 0.44 µM | 0.06 µM | – | – | – | – | –
Nc1nc(-c2ncc[nH]2)nc2c1[nH]c(=O)n2Cc1ccc(OCC(=O)O)nc1 [Compound 58] | – | 2750 nM | 2.69 µM | 0.99 µM | 0.06 µM | – | – | – | – | –
Nc1nc(-c2nc(C3CC3)c[nH]2)nc2c1[nH]c(=O)n2Cc1ccc2c(c1)CNCC2 [Compound 60] | – | 34 nM | 0.019 µM | >25 µM | 1.25 µM | – | – | – | – | –
CN1CCN(CCCCCn2c(=O)[nH]c3c(N)nc(-c4ncc[nH]4)nc32)CC1 [Compound 61] | – | – | – | >25 µM | 9.73 µM | – | – | – | 1340 nM | 0.95 µM
Nc1nc(-c2nc(C3CC3)c[nH]2)nc2c1[nH]c(=O)n2CCCCCCN1CCCC1 [Compound 62] | – | 700 nM | 0.72 µM | 21.2 µM | >25 µM | – | – | – | – | –
Nc1nc(-c2ncc[nH]2)nc2c1[nH]c(=O)n2CC1CCOCC1 [Compound 63] | – | 6720 nM | 4.39 µM | >25 µM | 2.58 µM | – | – | – | – | –
